From ChEMBL document CHEMBL1201862, “PubChem BioAssay data set” (2004)
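A five-concentration, 48-hour dose response in 96-well plates underlies each endpoint, interpolated linearly between surrounding concentrations. Abbreviation: GI50, concentration required for 50% inhibition of growth.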 Activity calls are given as the source filed them. Rule as the data show it: active = GI50 up to about 1.1 µM and inactive = higher.

Experiments:
Experiment in all cases: NCI tumour cell line growth inhibition, 48 h
[1] = test system: Malme-3M
[2] = test system: HOP-62
[3] = test system: K562
[4] = test system: HCT-15
[5] = test system: CAKI-1
[6] = test system: NCI-H522
[7] = test system: HCT-116
[8] = test system: A549
[9] = test system: OVCAR-5
[10] = test system: PC-3
[11] = test system: SNB-19
[12] = test system: BT-549
[13] = test system: IGROV-1
[14] = test system: Hs-578T
[15] = test system: NCI-H23
[16] = test system: EKVX
[17] = test system: LOX IMVI
[18] = test system: SN12C
[19] = test system: NCI-H226

Compound	GI50 [1]	GI50 [2]	GI50 [3]	GI50 [4] [µM]	GI50 [5]	GI50 [6]	GI50 [7]	GI50 [8]	GI50 [9]	GI50 [10]	GI50 [11]	GI50 [12]	GI50 [13]	GI50 [14]	GI50 [15]	GI50 [16]	GI50 [17]	GI50 [18]	GI50 [19]
CC(C)(C)OC(=O)NCCC1CN(C(=O)c2ccccc2)c2ccccc21 (stereo unspecified)	28.9 µM (inactive)	25.8 µM (inactive)	27 µM (inactive)	29.9	36 µM (inactive)	22.6 µM (inactive)	17.8 µM (inactive)	25.3 µM (inactive)	32.7 µM (inactive)	31.8 µM (inactive)	32 µM (inactive)	25.1 µM (inactive)	29.5 µM (inactive)	43.5 µM (inactive)	26.3 µM (inactive)	25.6 µM (inactive)	–	–	–
Nc1nc(N)c2ncn(Cc3c(Cl)cccc3Cl)c2n1	> 100 µM (inactive)	> 100 µM (inactive)	–	> 100	> 100 µM (inactive)	> 100 µM (inactive)	> 100 µM (inactive)	> 100 µM (inactive)	> 100 µM (inactive)	> 100 µM (inactive)	> 100 µM (inactive)	> 100 µM (inactive)	> 100 µM (inactive)	> 100 µM (inactive)	> 100 µM (inactive)	28.4 µM (inactive)	> 100 µM (inactive)	> 100 µM (inactive)	> 100 µM (inactive)
CC(C)(C)OC(=O)N1C(=O)OC[C@@H]2C=C[C@@H]21	> 100 µM (inactive)	> 100 µM (inactive)	–	> 100	> 100 µM (inactive)	> 100 µM (inactive)	> 100 µM (inactive)	> 100 µM (inactive)	> 100 µM (inactive)	> 100 µM (inactive)	> 100 µM (inactive)	> 100 µM (inactive)	> 100 µM (inactive)	> 100 µM (inactive)	> 100 µM (inactive)	> 100 µM (inactive)	> 100 µM (inactive)	> 100 µM (inactive)	–
O=C1CSC2=NC3=C(COC/C3=C\c3ccc(Br)cc3)C(c3ccc(Br)cc3)N12 (stereo unspecified)	–	> 100 µM (inactive)	28.9 µM (inactive)	52.6	> 100 µM (inactive)	3.92 µM (inactive)	40.2 µM (inactive)	–	> 100 µM (inactive)	41.8 µM (inactive)	> 100 µM (inactive)	> 100 µM (inactive)	98.6 µM (inactive)	> 100 µM (inactive)	90.6 µM (inactive)	> 100 µM (inactive)	53.6 µM (inactive)	> 100 µM (inactive)	> 100 µM (inactive)
C1CSCCSCCSCCSCCS1	–	> 100 µM (inactive)	> 100 µM (inactive)	> 100	> 100 µM (inactive)	> 100 µM (inactive)	> 100 µM (inactive)	> 100 µM (inactive)	> 100 µM (inactive)	> 100 µM (inactive)	> 100 µM (inactive)	> 100 µM (inactive)	> 100 µM (inactive)	> 100 µM (inactive)	> 100 µM (inactive)	> 100 µM (inactive)	> 100 µM (inactive)	> 100 µM (inactive)	> 100 µM (inactive)
C[C@]12CC[C@@H]3c4ccc(O)cc4CC[C@H]3[C@@H]1C/C(=C\c1ccncc1)[C@@H]2O	5.04 µM (inactive)	14.8 µM (inactive)	–	4.22	12.8 µM (inactive)	3.73 µM (inactive)	10.9 µM (inactive)	7.36 µM (inactive)	28.6 µM (inactive)	10.4 µM (inactive)	23.4 µM (inactive)	3.86 µM (inactive)	7.43 µM (inactive)	4.42 µM (inactive)	3.1 µM (inactive)	18.5 µM (inactive)	–	26.9 µM (inactive)	10.7 µM (inactive)
C=CCN1C(=O)C=C(c2ccccc2)n2ncc3cccc1c32	> 100 µM (inactive)	80.4 µM (inactive)	–	> 100	> 100 µM (inactive)	> 100 µM (inactive)	> 100 µM (inactive)	> 100 µM (inactive)	> 100 µM (inactive)	> 100 µM (inactive)	> 100 µM (inactive)	> 100 µM (inactive)	> 100 µM (inactive)	> 100 µM (inactive)	> 100 µM (inactive)	95.5 µM (inactive)	> 100 µM (inactive)	> 100 µM (inactive)	> 100 µM (inactive)
COc1ccccc1/C=C/C1=NN(c2cccc(S(=O)(=O)O)c2)C2(C1)SCC(=O)N2c1nc2ccccc2s1 (stereo unspecified)	> 100 µM (inactive)	–	36.2 µM (inactive)	67.9	> 100 µM (inactive)	36.7 µM (inactive)	> 100 µM (inactive)	84.3 µM (inactive)	> 100 µM (inactive)	70.1 µM (inactive)	> 100 µM (inactive)	56.1 µM (inactive)	21.4 µM (inactive)	> 100 µM (inactive)	30.3 µM (inactive)	68.2 µM (inactive)	53.5 µM (inactive)	> 100 µM (inactive)	31.7 µM (inactive)
O=S(=O)(O)c1ccc2c(/N=N/c3ccc(Cl)cc3)c(O)ccc2c1	> 100 µM (inactive)	> 100 µM (inactive)	> 100 µM (inactive)	> 100	> 100 µM (inactive)	> 100 µM (inactive)	> 100 µM (inactive)	> 100 µM (inactive)	> 100 µM (inactive)	> 100 µM (inactive)	> 100 µM (inactive)	> 100 µM (inactive)	> 100 µM (inactive)	> 100 µM (inactive)	> 100 µM (inactive)	> 100 µM (inactive)	> 100 µM (inactive)	> 100 µM (inactive)	–
Nc1ccn(C2OC(COP(=O)(O)OCC3OC(n4cc(F)c(=O)[nH]c4=O)CC3O)C(O)C2O)c(=O)n1 (stereo unspecified)	3.07 µM (inactive)	–	> 100 µM (inactive)	5.75	0.508 µM (active)	14.6 µM (inactive)	0.687 µM (active)	0.0244 µM (active)	> 100 µM (inactive)	> 100 µM (inactive)	0.585 µM (active)	> 37.6 µM (inactive)	> 34 µM (inactive)	> 100 µM (inactive)	0.314 µM (active)	> 100 µM (inactive)	0.0353 µM (active)	3.05 µM (inactive)	> 22.9 µM (inactive)
Nc1ncnc2c1ccn2C/C=C\CO	> 100 µM (inactive)	> 100 µM (inactive)	> 100 µM (inactive)	> 100	> 100 µM (inactive)	84.7 µM (inactive)	> 100 µM (inactive)	> 100 µM (inactive)	> 100 µM (inactive)	> 100 µM (inactive)	> 100 µM (inactive)	> 100 µM (inactive)	> 100 µM (inactive)	> 100 µM (inactive)	> 100 µM (inactive)	> 100 µM (inactive)	> 100 µM (inactive)	> 100 µM (inactive)	–
CC(=O)NNc1nc(-c2ccc([N+](=O)[O-])cc2)c(C#N)c(=O)n1C	> 100 µM (inactive)	26.9 µM (inactive)	24.3 µM (inactive)	29.3	79.8 µM (inactive)	22.1 µM (inactive)	34.5 µM (inactive)	> 100 µM (inactive)	27.5 µM (inactive)	37.7 µM (inactive)	> 100 µM (inactive)	1.88 µM (inactive)	16.8 µM (inactive)	27.1 µM (inactive)	29.4 µM (inactive)	38 µM (inactive)	16.9 µM (inactive)	> 100 µM (inactive)	–
CCCn1c2c(c3ccccc3c1=O)C(=O)c1ccccc1-2	76.7 µM (inactive)	14.1 µM (inactive)	> 100 µM (inactive)	–	48.3 µM (inactive)	2.37 µM (inactive)	25.2 µM (inactive)	36.4 µM (inactive)	> 100 µM (inactive)	> 100 µM (inactive)	> 100 µM (inactive)	> 100 µM (inactive)	> 57.7 µM (inactive)	44.5 µM (inactive)	> 68.9 µM (inactive)	> 76.7 µM (inactive)	> 100 µM (inactive)	> 62.4 µM (inactive)	> 46.5 µM (inactive)
O=C(NC(=O)c1cc(-c2ccccc2)n[nH]1)c1ccccc1	–	64.9 µM (inactive)	77.8 µM (inactive)	> 100	> 100 µM (inactive)	70.8 µM (inactive)	> 100 µM (inactive)	> 100 µM (inactive)	> 100 µM (inactive)	> 100 µM (inactive)	–	> 100 µM (inactive)	> 100 µM (inactive)	> 100 µM (inactive)	> 100 µM (inactive)	> 100 µM (inactive)	> 100 µM (inactive)	> 100 µM (inactive)	> 100 µM (inactive)
CCSc1cc(=O)n(C)c(=O)n1C	> 100 µM (inactive)	> 100 µM (inactive)	–	> 100	> 100 µM (inactive)	> 100 µM (inactive)	> 100 µM (inactive)	> 100 µM (inactive)	> 100 µM (inactive)	> 100 µM (inactive)	> 100 µM (inactive)	> 100 µM (inactive)	–	> 100 µM (inactive)	> 100 µM (inactive)	> 100 µM (inactive)	> 100 µM (inactive)	> 100 µM (inactive)	> 100 µM (inactive)
O=C1/C(=C/c2ccncc2)C(n2cccc2)c2c(Br)sc(Br)c21 (stereo unspecified)	3.02 µM (inactive)	3.03 µM (inactive)	1.82 µM (inactive)	2.85	3.26 µM (inactive)	11.7 µM (inactive)	2.79 µM (inactive)	14.9 µM (inactive)	14.3 µM (inactive)	4.41 µM (inactive)	15.5 µM (inactive)	3.07 µM (inactive)	1.96 µM (inactive)	2.77 µM (inactive)	2.56 µM (inactive)	3.1 µM (inactive)	1.93 µM (inactive)	4.39 µM (inactive)	–
